According to the supplement of paper PMC10307832:

Experiments:
Assay in all cases: relative viability (nuclei count vs DMSO), 5 days (fraction); higher = more cells survive
FG-4592 + OSI-027 = compound: Cc1nc(C(=O)NCC(=O)O)c(O)c2ccc(Oc3ccccc3)cc12 [FG-4592] + COc1cccc2cc(-c3nc([C@H]4CC[C@H](C(=O)O)CC4)n4ncnc(N)c34)[nH]c12 [OSI-027] (partner 0.5 µM)
How it was run: (§1)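 Dosing by pin tool came one day after lung cancer cell lines were seeded in 1536-well plates, using either one drug or a fixed anchor-drug dose plus five library-drug doses (not always all listed) in √10 steps. After 5 days, nuclei were counted on 4× images. Relative viability is treated-well nuclei count divided by vehicle-well nuclei count, and values are medians of duplicate plates.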

FG-4592 + Decitabine = compound: Cc1nc(C(=O)NCC(=O)O)c(O)c2ccc(Oc3ccccc3)cc12 [FG-4592] + Nc1ncn([C@H]2C[C@H](O)[C@@H](CO)O2)c(=O)n1 [Decitabine] (partner 2 µM)
How it was run: as §1

FG-4592 + Olaparib = compound: Cc1nc(C(=O)NCC(=O)O)c(O)c2ccc(Oc3ccccc3)cc12 [FG-4592] + O=C(c1cc(Cc2n[nH]c(=O)c3ccccc23)ccc1F)N1CCN(C(=O)C2CC2)CC1 [Olaparib] (partner 8 µM)
How it was run: as §1

IU1-47 + Pemetrexed = compound: CC1=CC(=C(N1C2=CC=C(C=C2)Cl)C)C(=O)CN3CCCCC3 [IU1-47] + Nc1nc2[nH]cc(CCc3ccc(C(=O)N[C@@H](CCC(=O)O)C(=O)O)cc3)c2c(=O)[nH]1 [Pemetrexed] (partner 0.2 µM)
How it was run: as §1

Row | Cell Line | relative viability (FG-4592 + OSI-027; first compound 0.08 µM) | relative viability (FG-4592 + OSI-027; first compound 0.253 µM) | relative viability (FG-4592 + OSI-027; first compound 0.8 µM) | relative viability (FG-4592 + OSI-027; first compound 2.53 µM) | relative viability (FG-4592 + OSI-027; first compound 8 µM) | relative viability (FG-4592 + Decitabine; first compound 0.08 µM) | relative viability (FG-4592 + Decitabine; first compound 0.253 µM) | relative viability (FG-4592 + Decitabine; first compound 0.8 µM) | relative viability (FG-4592 + Decitabine; first compound 2.53 µM) | relative viability (FG-4592 + Decitabine; first compound 8 µM) | relative viability (FG-4592 + Olaparib; first compound 0.08 µM) | relative viability (FG-4592 + Olaparib; first compound 0.253 µM) | relative viability (FG-4592 + Olaparib; first compound 0.8 µM) | relative viability (FG-4592 + Olaparib; first compound 2.53 µM) | relative viability (FG-4592 + Olaparib; first compound 8 µM) | relative viability (IU1-47 + Pemetrexed; first compound 0.08 µM) | relative viability (IU1-47 + Pemetrexed; first compound 0.253 µM) | relative viability (IU1-47 + Pemetrexed; first compound 0.8 µM) | relative viability (IU1-47 + Pemetrexed; first compound 2.53 µM) | relative viability (IU1-47 + Pemetrexed; first compound 8 µM)
1 | NCI-H358 | 0.695 | 0.664 | 0.83 | 0.702 | 0.572 | 0.213 | 0.194 | 0.288 | 0.192 | 0.202 | 0.55 | 0.552 | 0.662 | 0.579 | 0.695 | 0.156 | 0.169 | 0.172 | 0.184 | 0.165
2 | NCI-H1944 | 0.401 | 0.367 | 0.412 | 0.325 | 0.364 | 0.422 | 0.446 | 0.415 | 0.436 | 0.388 | 0.437 | 0.392 | 0.443 | 0.376 | 0.419 | 0.652 | 0.778 | 0.751 | 0.734 | 0.58
3 | NCI-H2342 | 0.594 | 0.648 | 0.631 | 0.585 | 0.57 | 0.841 | 0.793 | 0.662 | 0.772 | 0.608 | 0.433 | 0.436 | 0.452 | 0.436 | 0.422 | 0.794 | 0.782 | 0.942 | 0.825 | 0.693
4 | EPLC-272H | 0.348 | 0.206 | 0.285 | 0.29 | 0.232 | 0.417 | 0.302 | 0.304 | 0.368 | 0.382 | 0.665 | 0.633 | 0.886 | 0.74 | 0.697 | 0.332 | 0.422 | 0.316 | 0.327 | 0.313
5 | NCI-H1915 | 0.521 | 0.59 | 0.683 | 0.579 | 0.578 | 0.271 | 0.28 | 0.284 | 0.255 | 0.252 | 0.25 | 0.248 | 0.276 | 0.253 | 0.282 | 0.586 | 0.515 | 0.46 | 0.562 | 0.553
6 | NCI-H596 | 0.595 | 0.634 | 0.513 | 0.431 | 0.434 | 0.92 | 1.01 | – | 0.897 | 0.8 | 0.663 | 0.641 | – | 0.708 | 0.625 | 0.491 | – | 0.494 | 0.508 | 0.446
7 | NCI-H322M | 0.507 | 0.543 | 0.557 | 0.488 | 0.469 | – | 0.658 | 0.714 | 0.638 | 0.725 | – | 0.746 | 0.713 | 0.766 | 0.897 | 0.662 | 0.648 | 0.829 | 0.582 | 0.607
8 | NCI-H522 | 0.739 | 0.738 | 0.727 | 0.594 | 0.574 | 0.706 | 0.514 | – | 0.65 | 0.74 | 0.766 | 0.644 | – | 0.588 | 0.678 | 0.923 | 0.975 | 1.02 | 0.735 | 0.958
